Measurements: patent publication US20070037887A1, “Blockade of mtor to prevent a hormonal adaptive response” (University of Virginia Patent Foundation, priority 2003, published 2007)

How the values were obtained:
[1] = system: Shc; assay: E2-induced Shc phosphorylation in MCF-7 cells; assay type: cell-based, human; conditions: 10^−10 M E2 for 3 minutes
Protocol: Because ERα, Shc and MAP kinase are all involved in E2 action in MCF-7 cells, upstream components responsible for Shc phosphorylation were determined by measuring the effects of PP2, ICI and PD98059 on E2-induced phosphorylation of Shc. In the presence of the inhibitors, MCF-7 cells were stimulated with vehicle or 10^−10 M E2 for 3 minutes and the status of Shc phosphorylation was examined. […] No effects of these inhibitors were apparent in the absence of E2 stimulation. […] Each of these inhibitors was capable of reducing the rate of cell proliferation in LTED cells.

[2] = system: LTED cells; assay: Actin cytoskeleton (phalloidin staining) and ERα localization in LTED cells; assay type: cell-based, human; conditions: 10^−9 M
From the text: It has been reported that cell mobility is controlled by a network of membrane initiated signals, such as activation of the Shc-Ras-MAPK pathway. Recently, it was reported that cell focal adhesions are highly dynamic structures. Cells can rapidly respond to the stimulation by growth factors and show reorganization of their cytoskeleton and cell shape. To examine E2 effects on reorganization of the actin cytoskeleton, the distribution of F-actin and also redistribution of the ERα localization in LTED and MCF-7 cells was determined by phalloidin staining. Untreated LTED cells expressed low actin polymerization and a few focal adhesion points. After E2 stimulation in contrast, the cytoskeleton underwent remodeling associated with formation of cellular ruffles, lamellipodias and leading edges, alterations of cell shape and loss of mature focal adhesion points. A subcellular redistribution of ERα to these dynamic membranes upon E2 stimulation represented another important feature of LTED cells. The ER antagonist ICI 182 780 at 10^−9 M blocked E2-induced ruffle formation as well as redistribution of ERα to the membrane with little effect by itself.

[3] = system: mTOR signaling; conditions: in cells; cited from earlier work
[4] = system: LTED cells; assay: [3H] thymidine incorporation into DNA, LTED cells; assay type: cell-based, human; conditions: inhibitors of the MAP kinase pathway
Protocol: FIGS. 5A & 5B represent the effect of FTS on DNA synthesis in MCF-7 (FIG. 5A) and LTED (FIG. 5B) cells. One hundred thousand cells were plated into each well of 24-well plates. Two days later, the cells were re-fed with IMEM containing 5% DCC-FBS. After another two days, cells were treated in quadruplicate with the compounds indicated for 18 hours. [^3H] thymidine (1 μCi/well) was added during the last 2 h of incubation. [^3H] thymidine incorporated into DNA was normalized by protein content.
The inhibitory effect of FTS on cell growth may be the result of inhibition of cellular proliferation, induction of apoptosis, or both. To determine the mechanism by which FTS inhibits cell growth, FTS's effect on DNA synthesis and apoptosis was investigated. […] Estradiol (10^−10 M) increased [^3H] thymidine incorporation by 2.6 fold compared to the control level in MCF-7 cells.

[5] = system: MCF-7 cells; assay: Estradiol dose response of growth, wild type MCF-7 cells; assay type: cell-based, human; conditions: PD 98059 co-administered with TGF alpha
Protocol: (§1) As further evidence of the role of MAP kinase, PD 98059 was administered to LTED cells and its effect on level of sensitivity to estradiol was examined.
(§2) To investigate whether the MAP and P13 kinase pathways have a role in estradiol induced cell proliferation, the following experiments were conducted. […] Blockade of this effect was obtained with the MAPK inhibitor PD98059. Administration of TGF at a dose of 10 ng/ml caused a 2-log shift to the left in the ability of estradiol to stimulate the growth of wild-type MCF-7 cells. […] Dual inhibition of PI3K with LY40029 and MAPK with U0126 shifted the level of sensitivity to estradiol more dramatically, by more than 2 logs to the right. On the basis of these observations, it is believed that adaptive hypersensitivity involves the joint activation of the PI3K and MAPK pathways.

[6] = system: LTED cells; assay: Estradiol dose response of growth (hypersensitivity), LTED cells; assay type: cell-based, human; conditions: PD 98059 alone
From the text: During the phase when tamoxifen first begins to stimulate tumor growth, removal of tamoxifen and administration of very low doses of estradiol stimulates tumor growth. In marked contrast, wild type tumors not exposed to tamoxifen long term are not stimulated by such low doses of estradiol. Taken together, these experiments indicate that either estradiol deprivation or blockade of estrogen action with antiestrogens enhances the level of sensitivity to estrogens or to the estrogenic properties of tamoxifen. This phenomenon of adaptive hypersensitivity is believed to be responsible for the superiority of aromatase inhibitors over tamoxifen in a variety of clinical settings.
as §1
as §2, with “On the basis of these observations, it is believed that adaptive hypersensitivity involves the joint activation of the PI3K and MAPK pathways.” left out

[7] = system: hormone dependent breast cancer; conditions: women responding initially to tamoxifen then relapsing, crossed over; cited from earlier work
[8] = system: mTOR-raptor complex; assay: Coimmunoprecipitation of raptor with mTOR, compound added to cell extracts or immune complexes; assay type: binding; conditions: caffeine 1 mM, LY294002 10 μM, rapamycin 1 μM plus FKBP12 10 μM, wortmannin 1 μM
Protocol: 293T cells were transfected with pcDNA3 alone (Vec.) or with a combination of pcDNA3AU1-mTOR, pcDNA33HA-Raptor, and pcDNA33HA-mLST8. Extracts of the cells were incubated with increasing concentrations of FTS before AU1-mTOR was immunoprecipated. Samples of the immune complexes were incubated with [γ-^32P]ATP and recombinant [His^6]PHAS-I, then subjected to SDS-PAGE and transferred to an immobilon membrane. After obtaining a phosphorimage of the membrane to detect ^32P-PHAS-I, the membrane was immunoblotted with PThr^36/45 antibodies. Other samples of the immune complexes were subjected to SDS-PAGE and immunoblots were prepared with antibodies to the HA epitope or to mTOR (see FIG. 13A). Extracts of nontransfected 293T cells were incubated with increasing concentrations of FTS before mTOR was immunoprecipated with mTAb1. A control immunoprecipitation was conducted using nonimmune IgG (NI). Immune complexes were subjected to SDS-PAGE and immunoblots were prepared with antibodies to mLST8, mTOR, and raptor.
Samples of extracts from 293T cells overexpressing AU1-mTOR, HA-raptor, and HA-mLST8 were incubated for 1 h with increasing concentrations of FTS (●, ▴, ▪) or GTS (∘, Δ, □) before immunoprecipitations were conducted with anti-AU1 antibodies. mTOR kinase activity (●, ∘) was determined by measuring ^32P incorporation into [His^6]PHAS-I in immune complex kinases assays performed with [γ-^32P]ATP (see FIG. 14A). The relative amounts of HA-raptor (▴, Δ) and HA-mLST8 (▪, □) that coimmunoprecipitated with AU1-mTOR were determined after immunoblotting with anti-HA antibodies (see FIG. 14B). The results (mean values+S.E. from 5 experiments) are expressed as percentages of the mTOR activity (FIG. 14A) or coimmunoprecipitating proteins (FIG. 14B) from samples incubated without FTS or GTS, and have been corrected for the amounts of AU1-mTOR immunoprecipitated.
293T cells were transfected with pcDNA3 alone (Vec.) or with a combination of pcDNA3AU1-mTOR, pcDNA33HARaptor, and pcDNA33HA-mLST8. AU1-mTOR was immunoprecipitated and samples of the washed immune complexes were at incubated […] for 30 min with no inhibitors or with the following: caffeine (1 mM), FTS (50 μM), LY294002 (10 μM), rapamycin (1 μM) plus FKBP12 (10 μM), and 1 μM wortmannin. To prevent destruction of wortmannin, incubations were conducted in the absence of thiol reducing agents. Samples of the immune complexes were incubated for 10 min with 10 mM MnCl2, 1 mM [γ-^32P]ATP, and 50 μg/ml [His^6]PHAS-I to assess mTOR activity. Other samples were rinsed twice, subjected to SDS-PAGE, and immunoblotted with anti-HA and anti-AU1 antibodies to determine the amounts of HA-raptor and HA-mLST8 associated with AU1-mTOR. The relative amounts of ^32P incorporated into PHAS-I were determined by phosphorimaging (see FIG. 15B).

[9] = system: MAP kinase; assay: MAP kinase activation in LTED cells; assay type: cell-based, human
Protocol: Upregulation of MAP kinase and PI-3-kinase could reflect either a constitutive activation of growth factor receptors, an increase in the endogenous secretion of growth factors, or other mechanisms. Inhibition of MAP kinase with a pure antiestrogen would rule out the possibility of constitutive activation of growth factor receptors or growth factor secretion. Accordingly, the pure anti-estrogen, faslodex (fulvestrant) was administered and the level of activation of MAP kinase in LTED cells was examined.
Estrogen deprivation might trigger activation of a non-genomic, estrogen regulated, MAP kinase pathway which utilizes Shc. […] The addition of E2 stimulated MAP kinase phosphorylation in LTED cells within minutes. The increased MAP kinase phosphorylation by E2 was time and dose-dependent being greatly stimulated at 15 min and remaining elevated for at least 30 min. Maximal stimulation of MAP kinase phosphorylation was at 10^−10 M of E2.

[10] = system: Shc; assay: Shc tyrosine phosphorylation in LTED cells; assay type: cell-based, human; conditions: at 3 min and 15 min respectively
Protocol: Shc proteins are known to couple tyrosine kinase receptors to the MAPK pathway and activation of Shc involves the phosphorylation of SHC itself. To investigate if the Shc pathway was involved in the rapid action of estradiol in LTED cells, tyrosine phosphorylated proteins were immuno-precipitated and tested for the presence of Shc under E2 treatment. E2 rapidly stimulated Shc tyrosine phosphorylation in a dose and time dependent fashion with a peak at 3 minutes. The pure estrogen receptor antagonist, fulvestrant, blocked E2-induced Shc and MAPK phosphorylation at 3 min and 15 min respectively.

Structure (SMILES): C[C@]12CC[C@@H]3c4ccc(O)cc4C[C@@H](CCCCCCCCC[S+]([O-])CCCC(F)(F)C(F)(F)F)[C@H]3[C@@H]1CC[C@@H]2O (stereo partly drawn) [ICI 182 780]
- E2-induced Shc phosphorylation [1]: effectively inhibited
- E2-induced ruffle formation and redistribution of ERα to the membrane [2]: blocked

Structure (SMILES): CC[C@H](C)[C@@H](CO[C@@H](Cc1ccccc1)C(=O)N[C@@H](CCS(C)(=O)=O)C(=O)OC(C)C)NC[C@@H](N)CS [L-744,832]
- time in which inhibition of mTOR signaling occurs [3]: ≤ 1.5 h

Structure (SMILES): COc1cccc(-c2cc(=O)c3ccccc3o2)c1N [PD98059]
- incorporation of tritiated thymidine into DNA [4]: block the incorporation
- TGF alpha induced left shift in estradiol dose response [5]: returned to baseline
- TGF alpha induced left shift in estradiol dose response ([5]; listed as PD 98059): returned back to baseline
- shift to the right of estradiol dose response curves [6]: approximately one-half log
- E2-induced Shc phosphorylation [1]: did not influence

Structure (SMILES): CCC1(c2ccc(N)cc2)CCC(=O)NC1=O (stereo not drawn) [aminoglutethimide]
- women with secondary clinical benefit [7]: 50%

Structure (SMILES): Cn1c(=O)c2c(ncn2C)n(C)c1=O [caffeine, reference compound]
- decrease of the association of AU1-mTOR and HA-raptor [8]: little, if any, effect

Structure (SMILES): C[C@]12CC[C@@H]3c4ccc(O)cc4C[C@@H](CCCCCCCCC[S+]([O-])CCCC(F)(F)C(F)(F)F)[C@H]3[C@@H]1CC[C@@H]2O (stereo partly drawn) [fulvestrant]
- level of activated MAP kinase [9]: returned the level of activated MAP kinase back to the level seen in wild type MCF-7 cells
- E2-induced Shc and MAPK phosphorylation [10]: blocked
